Test systems include OVCAR-3 ovarian; TK-10 renal; K-562 leukemia; HOP-92 NSCLC; LOX IMVI melanoma; UACC-257 melanoma; SF-268 CNS; SF-539 CNS; DMS 273 small cell lung; HL-60(TB) leukemia.
What all share (assay): DTP human tumour cell line panel, 48 h

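96-well plates; 48 h exposure; 5 concentrations. Endpoints by linear interpolation between flanking doses. Not reached: highest tested concentration assigned. GI50: concentration for 50% inhibition of growth. TGI: concentration producing complete growth inhibition.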 A value given as a limit tells only on which side of the number the result lay.

Consider 12 molecules from PubChem BioAssay (NCI).

Usually TGI stands for the concentration giving total growth inhibition. A low value points to greater sensitivity of the cells. Take `CN(C)CC1CCC(CN(C)C)C1=NO` (configuration not stated): the TGI in the experiment on OVCAR-3 ovarian, in the experiment on TK-10 renal, in the experiment with K-562 leukemia, in the experiment on HOP-92 NSCLC, with LOX IMVI melanoma and in the experiment on UACC-257 melanoma was over 100 µM throughout. For the same molecule, the TGI in the experiment with SF-268 CNS, in the experiment on SF-539 CNS and in the experiment with DMS 273 small cell lung was over 100 µM throughout.
What is called GI50 is the concentration giving 50% growth inhibition. On to `COc1cc(C(C)c2cc3c(cc2OCCOCCOc2cc4c(cc2C(C)c2cc(OC)c(OC)c(OC)c2)OCO4)OCO3)cc(OC)c1OC` (configuration not stated), for which the TGI with OVCAR-3 ovarian was over 10 µM; in the experiment with TK-10 renal it was over 100 µM; in the experiment on K-562 leukemia it was over 100 µM; in the experiment on HOP-92 NSCLC it was over 100 µM; in the experiment on HL-60(TB) leukemia it was over 100 µM; in the experiment on LOX IMVI melanoma, over 100 µM. The TGI in the experiment with UACC-257 melanoma was over 10 µM; in the experiment on SF-268 CNS it was over 100 µM; in the experiment on SF-539 CNS it was over 100 µM; with DMS 273 small cell lung, over 10 µM. Further, the GI50 is over 100 µM in the experiment with TK-10 renal; over 10 µM in the experiment with K-562 leukemia; over 100 µM with HL-60(TB) leukemia; over 100 µM in the experiment with LOX IMVI melanoma; over 100 µM in the experiment with SF-268 CNS; over 100 µM with SF-539 CNS.
In the case of `[O-]c1c(-c2ccccc2)[se]c(-c2ccccc2)[n+]1-c1ccccc1`, the TGI in the experiment with OVCAR-3 ovarian was 21.9 µM; in the experiment on TK-10 renal, 20.6 µM; with K-562 leukemia, over 100 µM; in the experiment on HOP-92 NSCLC, 38.1 µM; in the experiment on HL-60(TB) leukemia, 5.51 µM; with LOX IMVI melanoma, 30.5 µM. Also, the concentration for total growth inhibition (TGI) with UACC-257 melanoma worked out at 25.3 µM; in the experiment with SF-268 CNS, 21.6 µM; in the experiment with SF-539 CNS, 4.35 µM; with DMS 273 small cell lung it was 37.1 µM.
With `CCOc1ccccc1N=C(NC(=O)CC)SC`, the GI50 with OVCAR-3 ovarian, in the experiment on K-562 leukemia, in the experiment with HL-60(TB) leukemia, in the experiment with LOX IMVI melanoma, with UACC-257 melanoma and with SF-268 CNS was over 100 µM throughout. Besides, the GI50 in the experiment on SF-539 CNS and with DMS 273 small cell lung was over 100 µM throughout. Besides, the total growth inhibition concentration (TGI) in the experiment with OVCAR-3 ovarian was over 100 µM; in the experiment on TK-10 renal it was over 10 µM; in the experiment with K-562 leukemia, over 100 µM; in the experiment on HOP-92 NSCLC it was over 10 µM; in the experiment with HL-60(TB) leukemia, over 100 µM; in the experiment with LOX IMVI melanoma it was over 100 µM. The TGI in the experiment on UACC-257 melanoma, with SF-268 CNS, in the experiment on SF-539 CNS and with DMS 273 small cell lung was over 100 µM each time.
In the case of `Cc1ccc(S(=O)(=O)NC(C)C(=O)O)cc1` (configuration not stated), the TGI in the experiment with OVCAR-3 ovarian, in the experiment with TK-10 renal, in the experiment with K-562 leukemia, in the experiment on HOP-92 NSCLC, in the experiment with HL-60(TB) leukemia and in the experiment with LOX IMVI melanoma was over 100 µM throughout. The TGI in the experiment with UACC-257 melanoma, in the experiment with SF-268 CNS, with SF-539 CNS and in the experiment with DMS 273 small cell lung was over 100 µM throughout. The GI50 in the experiment on K-562 leukemia is over 100 µM.
As for `NC(N)=NS(=O)(=O)c1ccc(NC(=O)c2ccc(Cl)c3c(Nc4ccc(S(=O)(=O)N=C(N)N)cc4)c4ccccc4nc23)cc1`, the TGI in the experiment with OVCAR-3 ovarian is over 100 µM; in the experiment with K-562 leukemia, over 100 µM; with HOP-92 NSCLC, 79.9 µM; in the experiment on HL-60(TB) leukemia, over 100 µM; with LOX IMVI melanoma it was over 100 µM; in the experiment on UACC-257 melanoma, over 100 µM. For the same molecule, the total growth inhibition concentration (TGI) in the experiment with SF-268 CNS, in the experiment with SF-539 CNS and in the experiment with DMS 273 small cell lung was over 100 µM in each case.
As for `CC1=C(CC/C(C)=C/CCC2(C)CCC([C@H](C)C(=O)O)OO2)C(C)(C)CCC1` (some centres not stated) (tested in a mixture with another compound), the TGI in the experiment on OVCAR-3 ovarian, in the experiment on TK-10 renal, in the experiment with HOP-92 NSCLC, with HL-60(TB) leukemia, with LOX IMVI melanoma and in the experiment on UACC-257 melanoma was over 100 µM throughout. Moreover, the TGI with SF-268 CNS, with SF-539 CNS and in the experiment on DMS 273 small cell lung was over 100 µM throughout.
`CP(=O)(CCSc1ccccc1)c1ccccc1` (configuration not stated): the TGI with OVCAR-3 ovarian, in the experiment with TK-10 renal, in the experiment on K-562 leukemia, in the experiment with HOP-92 NSCLC, in the experiment with HL-60(TB) leukemia and in the experiment on LOX IMVI melanoma was over 100 µM each time. Further, the concentration for total growth inhibition (TGI) with UACC-257 melanoma, in the experiment with SF-268 CNS, in the experiment on SF-539 CNS and in the experiment on DMS 273 small cell lung was over 100 µM in each case.
Take `c1ccc2c(c1)[Se]c1ccccc1[Se]2`: the TGI with OVCAR-3 ovarian is over 100 µM; with TK-10 renal, over 100 µM; in the experiment on K-562 leukemia, over 100 µM; in the experiment on HOP-92 NSCLC, 76.3 µM; with HL-60(TB) leukemia, over 100 µM; in the experiment with LOX IMVI melanoma, over 100 µM. Moreover, the TGI in the experiment with UACC-257 melanoma, with SF-268 CNS, in the experiment on SF-539 CNS and in the experiment with DMS 273 small cell lung was over 100 µM each time.
Take `CCCC(=O)C(CC)/C(CCC(=O)N(Cc1ccccc1)Cc1ccccc1)=N/NC(=O)C[N+](C)(C)C` (configuration not stated): the TGI in the experiment with OVCAR-3 ovarian, in the experiment on K-562 leukemia, in the experiment on HOP-92 NSCLC, in the experiment on HL-60(TB) leukemia, in the experiment with UACC-257 melanoma and in the experiment with SF-268 CNS was over 100 µM throughout. Also, the TGI in the experiment with SF-539 CNS and with DMS 273 small cell lung was over 100 µM each time.
In the case of `COC(=O)c1c(C(=O)OC)c(C(=O)OC)c(C(=O)OC)c1C(=O)OC`, the concentration for total growth inhibition (TGI) in the experiment with OVCAR-3 ovarian, in the experiment on TK-10 renal, with K-562 leukemia, with HOP-92 NSCLC, in the experiment with HL-60(TB) leukemia and in the experiment on LOX IMVI melanoma was over 100 µM in each case. The TGI in the experiment on UACC-257 melanoma, with SF-268 CNS, with SF-539 CNS and in the experiment with DMS 273 small cell lung was over 100 µM in each case.
In the case of `CN1NC(c2ccccc2)=C(C#N)C(=O)CC1c1ccccc1Cl` (configuration not stated), the TGI in the experiment on TK-10 renal, in the experiment on HOP-92 NSCLC, in the experiment on HL-60(TB) leukemia, in the experiment on LOX IMVI melanoma, in the experiment on UACC-257 melanoma and with SF-268 CNS was over 100 µM each time. In the experiment with DMS 273 small cell lung, this molecule gave a TGI of over 100 µM.
